For data set [1], the system named is aconitine-induced arrhythmia in rats. The data set is described as follows: Aconitine-induced arrhythmia in rats. The note with it: for Occurrence time CA / Occurrence time VF / Occurrence time VP / Occurrence time VT: 50 min before aconitine 20 μg/kg i.v., n=10, x±s; for Antagonistic action against the arrhythmia induced by aconitine in rats: 100 and 200 mg/kg intragastric, result in words. It counts as in vivo, Wistar rats. The protocol: (§1) Models of experimental arrhythmia induced by aconitine and ouabain in rats and guinea pigs were constructed. The inventive compound and the hydrochloride thereof were administrated with dosages of 100 and 200 mg/kg, respectively. The positive medicament group was administrated with 10 mg/kg of Propranolol, and the control group was administrated with 0.5% carboxymethylcellulose sodium. Each group was administrated by gastric perfusion once. The occurrence times of ventricular premature contraction (VP), ventricular tachycardia (VT), ventricular fibrillation (VF) and cardiac arrest (CA) after administration of aconitine in rats were recorded; and the dosages of ouabain were also observed when VP, VT, VF and CA appeared.
Sixty Wistar rats were divided into 6 groups randomly: a control group, a positive medicament (Propranolol) group, high- and low-dosage groups (200 and 100 mg/kg) of the inventive compound and the hydrochloride thereof, respectively, 10 animals per group. Fifty minutes after intragastric administration, the animals of each groups were anaesthetized by injecting 10% chloral hydrate intraperitoneally and fixed in a supine position. A type II lead normal electrocardiogram was then recorded. After that, 20 μg/kg of aconitine was injected via sublingual vein, and the change of the electrocardiogram was observed. The occurrence times of ventricular premature contraction (VP), ventricular tachycardia (VT), ventricular fibrillation (VF) and cardiac arrest (CA) after administration of aconitine in the rats were recorded.
(§2) The experimental data were analyzed with the statistic software SPSS 10.0, and represented as x±s. The comparison among groups was analyzed by the intergroup comparison difference t test.

The test system of data set [2] is ouabain-induced arrhythmia in guinea pigs. The data set is described as follows: Ouabain-induced arrhythmia in guinea pigs. It counts as in vivo, EWG/B guinea pigs. The note with it: for Dosages of ouabain CA / Dosages of ouabain VF / Dosages of ouabain VP / Dosages of ouabain VT: ouabain infused 5 μg/min, n=6, x±s; for Antagonistic action against the arrhythmia induced by ouabain in guinea pigs: 100 and 200 mg/kg intragastric, result in words. The protocol: as §1
Thirty-six guinea pigs were divided into 6 groups randomly: a control group, a positive medicament (Propranolol) group, high- and low-dosage groups (200 and 100 mg/kg) of the inventive compound and the hydrochloride thereof, respectively, 6 animals per group. Fifty minutes after intragastric administration, the animals of each groups were anaesthetized by injecting 10% chloral hydrate intraperitoneally and fixed in a supine position. After the external jugular vein was separated, intubation was performed and a constant-speed micro-infusion apparatus was installed. Then a type II lead normal electrocardiogram was recorded. After that, ouabain was infused via the external jugular vein at a constant rate of 5 μg/min, and the change of the electrocardiogram was observed. The dosages of ouabain when VP, VT, VF and CA occurred after administration of ouabain in the guinea pigs were recorded.
as §2

The conditions of data set [3]: background statement; result in words; cited from earlier work.
For data set [4], the system named is arrhythmia induced by coronary artery ligation in rats. Put plainly: Arrhythmia induced by coronary artery ligation in rats. It counts as in vivo, Wistar rats. The settings on record: for Incidence rate of arrhythmia CA / Incidence rate of arrhythmia VF / Incidence rate of arrhythmia VT / Occurrence times CA / Occurrence times VF / Occurrence times VP / Occurrence times VT: rats, coronary artery ligation; for Occurrence times CA / Occurrence times VF / Occurrence times VP / Occurrence times VT: x±s. As to the method: Models of experimental arrhythmia induced by coronary artery ligation in rats were constructed. The inventive compound was administrated in a dose of 50, 100, 200 mg/kg, respectively. […] Each group wa administrated by gastric perfusion once. The occurrence times and the incidence rates of ventricular premature contraction (VP), ventricular tachycardia (VT), ventricular fibrillation […] and cardiac arrest (CA) after coronary artery ligation in rats were recorded.
The experimental data were analyzed with the statistic software SPSS 10.0, and represented as x±s. The intergroup comparison was analyzed by the intergroup difference comparison t test. The incidence rates were compared by χ^2 test.

Data set [5] relates to cholinesterase. The note with it: Chinese Patent No. ZL 03104541.3; result in words; cited from earlier work.
The mark [6] stands for this setting: 100 mg/kg intragastric, 100 mg/kg.
Setting [7] is: 200 mg/kg intragastric, 200 mg/kg.
Setting [8] is: 50 mg/kg by gastric perfusion once.
Where [9] appears, read: 100 mg/kg by gastric perfusion once.
The mark [10] stands for this setting: 200 mg/kg by gastric perfusion once.

The term melting point denotes the temperature of the solid-liquid transition.

Structures can show the parent of a compound that is named as a salt. Marks after values point to notes of the source that are not given here.

As to `O=C(Cc1ccccc1)Nc1c2c(nc3c1CCCC3)CCCC2` [Hydrochloride of the inventive compound, hydrochloride of 1,2,3,4,5,6,7,8-octohydro-9-phenylacetamidoacridine], in data set [1] (setting [6]), the “Occurrence time CA” value came to 907.2 ± 250.6 s, the “Occurrence time VF” value amounted to 640.4 ± 217.3 s, the “Occurrence time VP” value came out at 17.3 ± 7.8 s and the “Occurrence time VT” value came to 84.4 ± 19.0 s. For the same compound, in data set [1] (setting [7]), the “Occurrence time CA” value was found to be 911.2 ± 186.4 s, the “Occurrence time VF” value is 660.2 ± 204.7 s, the “Occurrence time VP” value turned out to be 22.6 ± 6.1 s and the “Occurrence time VT” value is 98.6 ± 21.3 s. Besides, in data set [1], the “Antagonistic action against the arrhythmia induced by aconitine in rats” value was “significant antagonistic actions”. For the same compound, in data set [2] (setting [6]), the “Dosages of ouabain CA” value was 280.3 ± 41.5 µg/kg, the “Dosages of ouabain VF” value came to 235.3 ± 36.3 µg/kg, the “Dosages of ouabain VP” value was 171.8 ± 38.4 µg/kg and the “Dosages of ouabain VT” value stood at 189.7 ± 30.3 µg/kg. In data set [2] (setting [7]), the “Dosages of ouabain CA” value was determined as 370.4 ± 66.7 µg/kg, the “Dosages of ouabain VF” value was 298.7 ± 49.1 µg/kg, the “Dosages of ouabain VP” value stood at 189.5 ± 25.4 µg/kg and the “Dosages of ouabain VT” value came to 230.4 ± 35.3 µg/kg. Also, the “Antagonistic action against the arrhythmia induced by ouabain in guinea pigs” value in data set [2] is given as “significant antagonistic actions”.
Consider `CC(C)NCC(O)COc1cccc2ccccc12` (stereo not shown) [Propranolol, reference compound], for which, in data set [1] (10 mg/kg intragastric), the “Occurrence time CA” value was found to be 913.7 ± 208.6 s, the “Occurrence time VF” value stood at 705.6 ± 233.2 s, the “Occurrence time VP” value was 23.6 ± 6.9 s and the “Occurrence time VT” value worked out at 101.6 ± 32.5 s. In data set [2] (10 mg/kg intragastric), the “Dosages of ouabain CA” value amounted to 390.6 ± 64.4 µg/kg, the “Dosages of ouabain VF” value is 323.2 ± 71.4 µg/kg, the “Dosages of ouabain VP” value came to 201.3 ± 55.6 µg/kg and the “Dosages of ouabain VT” value amounted to 240.7 ± 48.78 µg/kg.
As to `Nc1c2c(nc3ccccc13)CCCC2` [Tacrine, 9-amino-1,2,3,4-tetrahydroacridine], in data set [3], the Hepatotoxicity result is “has a hepatotoxicity”.
For `O=C(Cc1ccccc1)Nc1c2c(nc3c1CCCC3)CCCC2` [Inventive compound, 1,2,3,4,5,6,7,8-octohydro-9-phenylacetamidoacridine], the “Antagonistic action against the experimental arrhythmia induced by coronary artery ligation in rats” value in data set [4] (rats, 50, 100, 200 mg/kg by gastric perfusion, result in words) is listed as “significant antagonistic action”. For the same compound, in data set [4] (setting [8]), the “Incidence rate of arrhythmia CA” value is given as 21.4%, the “Incidence rate of arrhythmia VF” value is recorded as 35.7%, the “Incidence rate of arrhythmia VT” value stood at 42.8% and the “Occurrence times CA” value was 1141.8 ± 161.9 s. In addition, in data set [4] (setting [8]), the “Occurrence times VF” value was 930.5 ± 379.4 s, the “Occurrence times VP” value was 82.3 ± 79.0 s and the “Occurrence times VT” value worked out at 773.8 ± 344.3 s. Also, in data set [4] (setting [9]), the “Incidence rate of arrhythmia CA” value is reported as 14.3* %, the “Incidence rate of arrhythmia VF” value is listed as 14.3* %, the “Incidence rate of arrhythmia VT” value was 28.6* % and the “Occurrence times CA” value was 1163.4 ± 124.6 s. Besides, in data set [4] (setting [9]), the “Occurrence times VF” value was 1148.3 ± 193.6 s, the “Occurrence times VP” value was found to be 90.1 ± 39.7 s and the “Occurrence times VT” value came out at 920.5 ± 270.6 s. In data set [4] (setting [10]), the “Incidence rate of arrhythmia CA” value is on record as 12.5* %, the “Incidence rate of arrhythmia VF” value was 12.5* %, the “Incidence rate of arrhythmia VT” value is given as 12.5** % and the “Occurrence times CA” value was found to be 1176.4 ± 729.2 s. In data set [4] (setting [10]), the “Occurrence times VF” value came out at 1115.0 ± 138.8 s, the “Occurrence times VP” value is 107.3 ± 67.9 s and the “Occurrence times VT” value came out at 1043.2 ± 247.1 s. In addition, in data set [1] (setting [6]), the “Occurrence time CA” value was determined as 910.1 ± 276.5 s, the “Occurrence time VF” value was 621.6 ± 203.7 s, the “Occurrence time VP” value is 16.9 ± 8.3 s and the “Occurrence time VT” value turned out to be 82.7 ± 21.0 s. Also, in data set [1] (setting [7]), the “Occurrence time CA” value worked out at 905.7 ± 170.3 s, the “Occurrence time VF” value came out at 650.4 ± 193.3 s, the “Occurrence time VP” value was 20.7 ± 6.9 s and the “Occurrence time VT” value is 95.6 ± 20.6 s. Further, the “Antagonistic action against the arrhythmia induced by aconitine in rats” value in data set [1] was “significant antagonistic actions”. Moreover, in data set [2] (setting [6]), the “Dosages of ouabain CA” value came out at 283.0 ± 46.5 µg/kg, the “Dosages of ouabain VF” value was found to be 230.5 ± 46.4 µg/kg, the “Dosages of ouabain VP” value is 174.9 ± 41.7 µg/kg and the “Dosages of ouabain VT” value is 184.1 ± 28.8 µg/kg. In data set [2] (setting [7]), the “Dosages of ouabain CA” value was determined as 371.3 ± 69.6 µg/kg, the “Dosages of ouabain VF” value amounted to 294.5 ± 51.9 µg/kg, the “Dosages of ouabain VP” value amounted to 185.5 ± 24.8 µg/kg and the “Dosages of ouabain VT” value is 228.3 ± 36.6 µg/kg. In addition, the “Antagonistic action against the arrhythmia induced by ouabain in guinea pigs” value in data set [2] was “significant antagonistic actions”.
`O=C(Cc1ccccc1)Nc1c2c(nc3c1CCCC3)CCCC2` (as salt: hydrochloride) [Hydrochloride of the inventive compound, hydrochloride of 1,2,3,4,5,6,7,8-octohydro-9-phenylacetamidoacridine] came in with a melting point of 231 to 234 °C.
Same read-out and setting: the figure for `O=C(Cc1ccccc1)Nc1c2c(nc3c1CCCC3)CCCC2` (hydrate or solvate) [Inventive compound, 1,2,3,4,5,6,7,8-octohydro-9-phenylacetamidoacridine] is 234 to 236 °C.
In the case of `Nc1c2c(nc3c1CCCC3)CCCC2` [9-amino-1,2,3,4,5,6,7,8-octohydroacridine], the “Inhibition activity for cholinesterase” value in data set [5] is listed as “proved to have an inhibition activity for cholinesterase”.

Source of the values: patent publication US8722701B2, “1,2,3,4,5 6,7,8-octohydro-9-phenylacetamidoacridine, the preparation method and medical use thereof” (priority 2010, dated 2014).
